Source: ChEMBL document CHEMBL4513139, “CO-ADD screening of University of Strathclyde (UK) compounds”
≈ marks a conversion by molar mass, not a printed value.

Experiments:
HEK293 = test: cells; type: functional, Homo sapiens, ATCC CRL1573; conditions: Homo sapiens, ATCC CRL1573, HEK293; ASSAY_TEST Inhibition of Cell Viability; detection method Resazurin; Fluorescence (ex560/em590); MEDIA DMEM with 10% FBS; plate type 384well; TC; CORNING #3712; time 18 hr; read-out: CC50
Staphylococcus aureus = test: microbe, parasite or virus in culture; conditions: ATCC 43300, 18 h, ASSAY_TEST Inhibition of Bacterial Growth, detection method Absorption (OD600), MEDIA CAMHB, plate type 384well, NBS, CORNING #3640
Description: Antibacterial activity against Staphylococcus aureus MRSA ATCC 43300 (CO-ADD:GP_020); MIC in CAMBH media, using NBS plates, by OD(600)

Escherichia coli = test: microbe, parasite or virus in culture; conditions: ATCC 25922, 18 h, ASSAY_TEST Inhibition of Bacterial Growth, detection method Absorption (OD600), MEDIA CAMHB, plate type 384well, NBS, CORNING #3640
Description: Antibacterial activity against Escherichia coli ATCC 25922 (CO-ADD:GN_001); MIC in CAMBH media using NBS plates, by OD(600)

Klebsiella pneumoniae = test: microbe, parasite or virus in culture; conditions: ATCC 700603, 18 h, ASSAY_TEST Inhibition of Bacterial Growth, detection method Absorption (OD600), MEDIA CAMHB, plate type 384well, NBS, CORNING #3640
Description: Antibacterial activity against Klebsiella pneumoniae MDR ATCC 70063 (CO-ADD:GN_003); MIC in CAMBH media using NBS plates, by OD(600)

Pseudomonas aeruginosa = test: microbe, parasite or virus in culture; conditions: ATCC 27853, 18 h, ASSAY_TEST Inhibition of Bacterial Growth, detection method Absorption (OD600), MEDIA CAMHB, plate type 384well, NBS, CORNING #3640
Description: Antibacterial activity against Pseudomonas aeruginosa ATCC 27853 (CO-ADD:GN_042); MIC in CAMBH media using NBS plates, by OD(600)

Acinetobacter baumannii = test: microbe, parasite or virus in culture; conditions: ATCC 19606, 18 h, ASSAY_TEST Inhibition of Bacterial Growth, detection method Absorption (OD600), MEDIA CAMHB, plate type 384well, NBS, CORNING #3640
Description: Antibacterial activity against Acinetobacter baumannii ATCC 19606 (CO-ADD:GN_034); MIC in CAMBH media using NBS plates, by OD600

Candida albicans = test: microbe, parasite or virus in culture; conditions: ATCC 90028, ASSAY_TEST Inhibition of Fungal Growth, detection method Absorption (OD530), plate type 384well, NBS, CORNING #3640
Description: Antifungal activity against Candida albicans ATCC 90028 (CO-ADD:FG_001); MIC in YNB media using NBS plates, by OD630

Description for Cryptococcus neoformans: Antifungal activity against Cryptococcus neoformans H99 ATCC 208821 (CO-ADD:FG_002); MIC in YNB media using NBS plates, by Resazurin OD(600-570)

Row | MIC (Cryptococcus neoformans) [µg/mL] | MIC (Staphylococcus aureus) [µg/mL] | MIC (Escherichia coli) [µg/mL] | MIC (Klebsiella pneumoniae) [µg/mL] | MIC (Pseudomonas aeruginosa) [µg/mL] | MIC (Acinetobacter baumannii) [µg/mL] | MIC (Candida albicans) [µg/mL] | Compound | CC50 (HEK293) [µg/mL]
1 | > 32 | > 32 | > 32 | > 32 | > 32 | > 32 | > 32 | COc1ccc(/C=C/c2ccc(C(=O)Nc3cc(C(=O)Nc4cc(C(=O)NCCN5CCOCC5)n(C)c4)n(C)c3)cn2)cc1.O=C(O)C(F)(F)F.O=C(O)C(F)(F)F | 27.1
2 | > 32 | 4 | > 32 | > 32 | > 32 | > 32 | > 32 | Cn1cc(NC(=O)c2ccc(/C=C/c3ccncc3)cc2)cc1C(=O)Nc1cc(C(=O)NCCN2CCOCC2)n(CCCN2CCOCC2)c1.O=C(O)C(F)(F)F.O=C(O)C(F)(F)F | 4.65
3 | 2 | 2 | > 32 | > 32 | > 32 | > 32 | 4 | CN(C)CCNC(=O)c1cc(NC(=O)c2cc(NC(=O)c3ccc(/C=C/c4ccc(N(C)C)cc4)nc3)cn2C)cn1C.O=C(O)C(F)(F)F.O=C(O)C(F)(F)F | 1.13
4 | > 32 | > 32 | > 32 | > 32 | > 32 | > 32 | > 32 | COc1ccc(/C=C/c2ccc(C(=O)Nc3cc(C(=O)Nc4cc(C(=O)NCCN5CCC(OC)CC5)n(C)c4)n(C)c3)cc2)cc1.O=C(O)C(F)(F)F | 6.43
5 | 8 | > 32 | > 32 | > 32 | > 32 | > 32 | > 32 | CN(C)CCCNC(=O)c1cc(NC(=O)c2cc(NC(=O)c3cc(NC(=N)c4cnc5ccccc5c4)cn3C)cn2C)cn1C.O=C(O)C(F)(F)F.O=C(O)C(F)(F)F | > 32

More lines, now with the values behind:

Row | Compound | MIC (Cryptococcus neoformans) [µg/mL] | MIC (Staphylococcus aureus) [µg/mL] | MIC (Escherichia coli) [µg/mL] | MIC (Klebsiella pneumoniae) [µg/mL] | MIC (Pseudomonas aeruginosa) [µg/mL] | MIC (Acinetobacter baumannii) [µg/mL] | MIC (Candida albicans) [µg/mL] | CC50 (HEK293) [µg/mL]
6 | CN(C)CCCn1cnc(NC(=O)c2cc(NC(=O)c3cc(NC(=O)c4cc5ccccc5cn4)cn3C)cn2C)c1.O=C(O)C(F)(F)F | 16 | > 32 | > 32 | > 32 | > 32 | > 32 | > 32 | 7.3
7 | COCCOC1CCN(CCNC(=O)c2cc(NC(=O)c3cc(NC(=O)c4ccc(/C=C/c5cnc6ccccc6c5)cc4)cn3C)cn2C)CC1 | > 32 | 0.5 (≈ 0.71 µM) | > 32 | > 32 | > 32 | > 32 | > 32 | 1.96 (≈ 2.78 µM)
8 | COCCOC1CCN(CCNC(=O)c2cc(NC(=O)c3cc(NC(=O)c4ccc(/C=C/c5ccc6nonc6c5)cc4)cn3C)cn2C)CC1.O=S(=O)(O)O | > 32 | > 32 | > 32 | > 32 | > 32 | > 32 | > 32 | 3.84
9 | CC(C)CCc1sc(NC(=O)c2cc(NC(=O)c3cc(NC(=N)N)cn3C)cn2C)nc1C(=O)NCCCN(C)C.O=C(O)C(F)(F)F.O=C(O)C(F)(F)F | 4 | 16 | > 32 | > 32 | > 32 | > 32 | > 32 | 19.9
10 | COCCOC1CCN(CCNC(=O)c2cc(NC(=O)c3cc(NC(=O)c4ccc(/C=C/c5ccc(OC)cc5)cc4)cn3C)cn2C)CC1.O=S(=O)(O)O | > 32 | 16 | > 32 | > 32 | > 32 | > 32 | > 32 | 1.57
11 | COc1cccc(C(=N)Nc2cc(C(=O)Nc3nc(C(=O)NCCN4CCOCC4)c(CCc4ccccc4)s3)n(C)c2)c1.O=C(O)C(F)(F)F.O=C(O)C(F)(F)F | 16 | 32 | > 32 | > 32 | > 32 | > 32 | > 32 | 2.59
12 | CC(C)c1sc(NC(=O)c2cc(NC(=O)c3cc(NC(=O)c4cc5ccccc5cn4)cn3C)cn2C)nc1C(=O)NCCN1CCOCC1.O=C(O)C(F)(F)F | 32 | > 32 | > 32 | > 32 | > 32 | > 32 | > 32 | > 32
